Assay results as given in patent US10766884B2 (Pfizer Inc., priority 2018, dated 2020).
Where a name gives a salt, the structure may show the parent alone.

Legend:
CDK4 = CDK4 (Homo sapiens (Human), UniProt P11802); assay: Phospho-Serine 795 Rb ELISA assay in JEKO-1 cells; format: cell-based; settings: overnight treatment, phospho-Rb S795, read-out: CDK4 pRB S795 ELISA JEKO-1 cells IC50
CDK4/Cyclin D1 = CDK4/Cyclin D1 (Homo sapiens (Human), UniProt P11802); assay: CDK4/Cyclin D1 mobility shift assay; format: biochemical; settings: activated CDK4/Cyclin D1, 3.5 mM ATP, Morrison fit; read-out: CDK4D1 Ki
CDK4/Cyclin D1, sequence (P11802 whole entry): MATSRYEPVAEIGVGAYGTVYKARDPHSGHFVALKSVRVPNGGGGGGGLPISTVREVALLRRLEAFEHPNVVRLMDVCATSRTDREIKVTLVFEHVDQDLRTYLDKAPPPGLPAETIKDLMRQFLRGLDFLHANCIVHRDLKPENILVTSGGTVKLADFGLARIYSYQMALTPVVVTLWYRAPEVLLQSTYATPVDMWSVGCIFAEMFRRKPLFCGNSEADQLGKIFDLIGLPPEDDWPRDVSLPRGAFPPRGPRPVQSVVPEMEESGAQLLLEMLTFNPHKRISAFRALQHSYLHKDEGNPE
CDK4/Cyclin D1, sequence (P24385 whole entry partner): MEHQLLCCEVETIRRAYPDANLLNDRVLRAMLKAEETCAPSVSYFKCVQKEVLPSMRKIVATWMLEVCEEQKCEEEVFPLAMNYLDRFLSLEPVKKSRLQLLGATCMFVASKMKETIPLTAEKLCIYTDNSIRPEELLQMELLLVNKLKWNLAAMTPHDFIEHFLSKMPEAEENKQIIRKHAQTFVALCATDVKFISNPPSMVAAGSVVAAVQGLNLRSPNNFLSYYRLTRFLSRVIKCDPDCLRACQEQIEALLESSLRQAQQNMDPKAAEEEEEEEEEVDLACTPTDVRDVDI

CDK6/Cyclin D3 = CDK6/Cyclin D3 (Homo sapiens (Human), UniProt Q00534); assay: CDK6/Cyclin D3 mobility shift assay; format: biochemical; settings: activated CDK6/Cyclin D3, 3.5 mM ATP, Morrison fit; read-out: CDK6_D3 Ki
CDK6/Cyclin D3, sequence (Q00534 whole entry): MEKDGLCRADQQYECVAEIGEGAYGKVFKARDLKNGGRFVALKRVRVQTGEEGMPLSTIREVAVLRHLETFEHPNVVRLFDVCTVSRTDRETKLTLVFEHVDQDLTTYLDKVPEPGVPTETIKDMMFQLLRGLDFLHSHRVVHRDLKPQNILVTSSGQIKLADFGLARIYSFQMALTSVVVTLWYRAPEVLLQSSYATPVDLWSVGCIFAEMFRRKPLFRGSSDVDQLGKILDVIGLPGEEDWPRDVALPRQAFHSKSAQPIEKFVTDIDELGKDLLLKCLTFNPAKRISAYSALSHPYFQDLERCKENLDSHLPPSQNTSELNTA
CDK6/Cyclin D3, sequence (P30281 whole entry partner): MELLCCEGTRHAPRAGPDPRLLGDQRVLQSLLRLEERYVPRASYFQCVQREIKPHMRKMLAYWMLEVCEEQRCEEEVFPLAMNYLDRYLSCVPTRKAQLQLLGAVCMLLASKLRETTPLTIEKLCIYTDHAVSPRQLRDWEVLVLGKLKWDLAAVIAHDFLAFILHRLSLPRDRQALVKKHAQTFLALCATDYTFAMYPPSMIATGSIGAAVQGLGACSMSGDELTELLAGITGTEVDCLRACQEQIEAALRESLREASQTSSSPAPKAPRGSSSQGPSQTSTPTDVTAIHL

CDK6 = CDK6 (Homo sapiens (Human), UniProt Q00534); assay: Phospho-Serine 795 Rb ELISA assay in MV4-11 cells; format: cell-based; settings: overnight treatment, phospho-Rb S795, read-out: CDK6 pRB S795 ELISA MV4-11 cells IC50
CDK6, sequence (Q00534 whole entry): as the sequence (Q00534 whole entry) above
CDK6, sequence (P30281 whole entry partner): as the sequence (P30281 whole entry partner) above

CDK4, sequence (P11802 2-303): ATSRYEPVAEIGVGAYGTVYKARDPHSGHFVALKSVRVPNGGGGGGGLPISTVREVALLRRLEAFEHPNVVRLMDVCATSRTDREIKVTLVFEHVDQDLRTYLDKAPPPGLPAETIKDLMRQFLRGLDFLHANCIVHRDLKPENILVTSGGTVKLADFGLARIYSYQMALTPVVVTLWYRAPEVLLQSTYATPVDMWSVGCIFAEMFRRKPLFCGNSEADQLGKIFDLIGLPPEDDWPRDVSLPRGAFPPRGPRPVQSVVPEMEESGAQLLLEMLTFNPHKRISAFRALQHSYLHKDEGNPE
CDK4, sequence (P24385 whole entry partner): as the sequence (P24385 whole entry partner) above

Row | Compound | IC50 (CDK4) [nM] | Ki (CDK4/Cyclin D1) [nM] | Ki (CDK6/Cyclin D3) [nM] | IC50 (CDK6) [nM]
1 | CCc1nc2c(F)cc(-c3nc(N[C@@H]4CCN(S(C)(=O)=O)C[C@H]4O)ncc3Cl)cc2n1C1COC1 [Example A71, (3R,4R)-4-({5-chloro-4-[2-ethyl-4-fluoro-1-(oxetan-3-yl)-1H-benzimidazol-6-yl]pyrimidin-2-yl}amino)-1-(methanesulfonyl)piperidin-3-ol] | 94.9 | 0.8 | 11.4 | 287
2 | COCc1nc2c(F)cc(-c3nc(N[C@@H]4CCN(S(C)(=O)=O)C[C@H]4O)ncc3Cl)cc2n1C(C)C [Example A75, (3R,4R)-4-({5-chloro-4-[4-fluoro-2-(methoxymethyl)-1-(propan-2-yl)-1H-benzimidazol-6-yl]pyrimidin-2-yl}amino)-1-(methanesulfonyl)piperidin-3-ol] | 33.2 | 0.3 | 5 | 103
3 | CC(C)(C)n1cnc2ccc(-c3nc(N[C@@H]4CCN(S(C)(=O)=O)C[C@H]4O)ncc3F)cc21 [Example A77, (3R,4R)-4-{[4-(1-tert-butyl-1H-benzimidazol-6-yl)-5-fluoropyrimidin-2-yl]amino}-1-(methanesulfonyl)piperidin-3-ol] | 61.1 | 0.3 | 4.9 | 126
4 | Cc1nc2ccc(-c3nc(N[C@@H]4CCN(S(C)(=O)=O)C[C@H]4O)ncc3F)cc2n1C(C)(C)C [Example A78, (3R,4R)-4-{[4-(1-tert-butyl-2-methyl-1H-benzimidazol-6-yl)-5-fluoropyrimidin-2-yl]amino}-1-(methanesulfonyl)piperidin-3-ol] | 26.4 | 0.1 | 1.8 | 73.9
5 | Cc1cc(-c2nc(N[C@@H]3CCN(S(C)(=O)=O)C[C@H]3O)ncc2F)cc2c1nc(C)n2C(C)C [Example A79, (3R,4R)-4-({4-[2,4-dimethyl-1-(propan-2-yl)-1H-benzimidazol-6-yl]-5-fluoropyrimidin-2-yl}amino)-1-(methanesulfonyl)piperidin-3-ol] | 598 | 1.8 | 17.6 | 1140
6 | CC1(C)OCCn2nc3c(F)cc(-c4nc(N[C@@H]5CCOC[C@H]5O)ncc4F)cc3c21 [Example A80, 1,5-anhydro-2,3-dideoxy-3-{[5-fluoro-4-(7-fluoro-1,1-dimethyl-3,4-dihydro-1H-[1,4]oxazino[4,3-b]indazol-9-yl)pyrimidin-2-yl]amino}-D-threo-pentitol] | 72.9 | 0.5 | 14.7 | 217
7 | Cc1cnc(N[C@@H]2CCN(S(C)(=O)=O)C[C@H]2O)nc1-c1cc(F)c2nc(C)n(C(C)C)c2c1 [Example A83, (3R,4R)-4-({4-[4-fluoro-2-methyl-1-(propan-2-yl)-1H-benzimidazol-6-yl]-5-methylpyrimidin-2-yl}amino)-1-(methanesulfonyl)piperidin-3-ol] | 395 | 4.1 | 88.5 | 1220
8 | CC(C)n1c(CO)nc2c(F)cc(-c3nc(N[C@@H]4CCN(S(C)(=O)=O)C[C@H]4O)ncc3Cl)cc21 [Example A87, (3R,4R)-4-({5-chloro-4-[4-fluoro-2-(hydroxymethyl)-1-(propan-2-yl)-1H-benzimidazol-6-yl]pyrimidin-2-yl}amino)-1-(methanesulfonyl)piperidin-3-ol] | 40.1 | 0.2 | 2.8 | 97.7
9 | Cc1nc2c(F)cc(-c3nc(N[C@@H]4CCN(S(C)(=O)=O)C[C@H]4O)ncc3F)cc2n1C1CNC1 [Example A88, (3R,4R)-4-({4-[1-(azetidin-3-yl)-4-fluoro-2-methyl-1H-benzimidazol-6-yl]-5-fluoropyrimidin-2-yl}amino)-1-(methanesulfonyl)piperidin-3-ol] | 7320 | 4.5 | 80.4 | 10000
10 | Cc1nc2c(F)cc(-c3nc(N[C@@H]4CCN(S(C)(=O)=O)C[C@H]4O)ncc3Cl)cc2n1C1COC1 [Example A89, (3R,4R)-4-({5-chloro-4-[4-fluoro-2-methyl-1-(oxetan-3-yl)-1H-benzimidazol-6-yl]pyrimidin-2-yl}amino)-1-(methanesulfonyl)piperidin-3-ol] | 118 | 0.5 | 12 | 570
11 | CC(C)n1c(C(C)(C)O)nc2c(F)cc(-c3nc(N[C@@H]4CCN(S(C)(=O)=O)C[C@H]4O)ncc3Cl)cc21 [Example A91, (3R,4R)-4-({5-chloro-4-[4-fluoro-2-(2-hydroxypropan-2-yl)-1-(propan-2-yl)-1H-benzimidazol-6-yl]pyrimidin-2-yl}amino)-1-(methanesulfonyl)piperidin-3-ol] | 14.9 | 0.1 | 1.7 | 25.7
12 | CC(C(F)F)n1c(CO)nc2c(F)cc(-c3nc(N[C@@H]4CCN(S(C)(=O)=O)C[C@H]4O)ncc3Cl)cc21 (stereo partly drawn) [Example A92, (3R,4R)-4-({5-chloro-4-[1-(1,1-difluoropropan-2-yl)-4-fluoro-2-(hydroxymethyl)-1H-benzimidazol-6-yl]pyrimidin-2-yl}amino)-1-(methanesulfonyl)piperidin-3-ol] | 23.8 | 0.1 | 0.9 | 42.9
13 | CC(C)n1c(C(C)(C)O)nc2c(F)cc(-c3nc(N[C@@H]4CCOC[C@H]4O)ncc3Cl)cc21 [Example A94, 1,5-anhydro-3-({5-chloro-4-[4-fluoro-2-(2-hydroxypropan-2-yl)-1-(propan-2-yl)-1H-benzimidazol-6-yl]pyrimidin-2-yl}amino)-2,3-dideoxy-D-threo-pentitol] | 38.5 | 0.6 | 13.9 | 145
14 | Cc1nc2c(F)cc(-c3nc(N[C@@H]4CCN(S(C)(=O)=O)C[C@H]4O)ncc3C#N)cc2n1C(C)C [Example B01, 4-[4-fluoro-2-methyl-1-(propan-2-yl)-1H-benzimidazol-6-yl]-2-{[(3R,4R)-3-hydroxy-1-(methanesulfonyl)piperidin-4-yl]amino}pyrimidine-5-carbonitrile] | 65.6 | 0.1 | 1.5 | 129
15 | Cc1nc2cc(Cl)c(-c3nc(N[C@@H]4CCN(S(C)(=O)=O)C[C@H]4O)ncc3F)cc2n1C(C)C [Example C01, (3R,4R)-4-({4-[5-chloro-2-methyl-1-(propan-2-yl)-1H-benzimidazol-6-yl]-5-fluoropyrimidin-2-yl}amino)-1-(methanesulfonyl)piperidin-3-ol] | 176 | 5.2 | 98.1 | 1380
16 | CC(C)n1c(C2CNC2)nc2c(F)cc(-c3nc(N[C@@H]4CCOC[C@H]4O)ncc3Cl)cc21 [Example C02, 1,5-anhydro-3-({4-[2-(azetidin-3-yl)-4-fluoro-1-(propan-2-yl)-1H-benzimidazol-6-yl]-5-chloropyrimidin-2-yl}amino)-2,3-dideoxy-D-threo-pentitol] | 584 | 4.1 | 89.3 | 1350
17 | Cc1nc2ccc(-c3cc(N[C@@H]4CCN(S(C)(=O)=O)C[C@H]4O)ncc3Cl)nc2n1C(C)C [Example D04, (3R,4R)-4-({5-chloro-4-[2-methyl-3-(propan-2-yl)-3H-imidazo[4,5-b]pyridin-5-yl]pyridin-2-yl}amino)-1-(methanesulfonyl)piperidin-3-ol] | 68.2 | 0.6 | 12.5 | 172
18 | Cc1nc2ccc(-c3cc(N[C@@H]4CCOC[C@H]4O)ncc3Cl)nc2n1C(C)C [Example D05, 1,5-anhydro-3-({5-chloro-4-[2-methyl-3-(propan-2-yl)-3H-imidazo[4,5-b]pyridin-5-yl]pyridin-2-yl}amino)-2,3-dideoxy-D-threo-pentitol] | 85.7 | 2.2 | 39.4 | 258
19 | COC(=O)N1CC[C@@H](Nc2ncc(F)c(-c3cc(F)c4nc(C)n(C(C)C)c4c3)n2)[C@H](O)C1 [Example F01, methyl (3R,4R)-4-({5-fluoro-4-[4-fluoro-2-methyl-1-(propan-2-yl)-1H-benzimidazol-6-yl]pyrimidin-2-yl}amino)-3-hydroxypiperidine-1-carboxylate] | 114 | 0.8 | 14.6 | 576
20 | CC(C)(C)n1cnc2c(F)cc(-c3nc(N[C@@H]4CCN(CCO)C[C@H]4O)ncc3Cl)cc21 [Example F05, (3R,4R)-4-{[4-(1-tert-butyl-4-fluoro-1H-benzimidazol-6-yl)-5-chloropyrimidin-2-yl]amino}-1-(2-hydroxyethyl)piperidin-3-ol formic acid salt] | 248 | 2.1 | 25.8 | 478
21 | CN(C)CCN1CC[C@@H](Nc2ncc(Cl)c(-c3cc(F)c4ncn(C(C)(C)C)c4c3)n2)[C@H](O)C1 [Example F06, (3R,4R)-4-{[4-(1-tert-butyl-4-fluoro-1H-benzimidazol-6-yl)-5-chloropyrimidin-2-yl]amino}-1-[2-(dimethylamino)ethyl]piperidin-3-ol formic acid salt] | 161 | 1.5 | 27.8 | 134
22 | CCS(=O)(=O)N1CC[C@@H](Nc2ncc(Cl)c(-c3cc(F)c4nc(C)n(C5COC5)c4c3)n2)[C@H](O)C1 [Example F08, (3R,4R)-4-({5-chloro-4-[4-fluoro-2-methyl-1-(oxetan-3-yl)-1H-benzimidazol-6-yl]pyrimidin-2-yl}amino)-1-(ethanesulfonyl)piperidin-3-ol] | 108 | 0.5 | 11.5 | 311
